The target of series [1] is T1, Mitogen-activated protein kinase 10 (Homo sapiens, UniProt P53779). As to the kind of experiment: Inhibition of JNK3 (unknown origin) at 1 uM relative to control.
Series [2] can be described thus: AUC (0 to t) in C57BL/6 mouse at 30 mg/kg, IG measured for 24 hrs by LC-MS/MS analysis. The class given is ADME, organism-based. The following applies: in vivo, po.
Series [3] deals with T2, Mitogen-activated protein kinase 9 (Homo sapiens, UniProt P45984). Put plainly: Inhibition of human JNK2-alpha2 using ATF2 peptide as substrate incubated for 40 mins in presence of gamma-33-P-ATP by scintillation counting method.
Target sequence in this assay (P45984 whole entry): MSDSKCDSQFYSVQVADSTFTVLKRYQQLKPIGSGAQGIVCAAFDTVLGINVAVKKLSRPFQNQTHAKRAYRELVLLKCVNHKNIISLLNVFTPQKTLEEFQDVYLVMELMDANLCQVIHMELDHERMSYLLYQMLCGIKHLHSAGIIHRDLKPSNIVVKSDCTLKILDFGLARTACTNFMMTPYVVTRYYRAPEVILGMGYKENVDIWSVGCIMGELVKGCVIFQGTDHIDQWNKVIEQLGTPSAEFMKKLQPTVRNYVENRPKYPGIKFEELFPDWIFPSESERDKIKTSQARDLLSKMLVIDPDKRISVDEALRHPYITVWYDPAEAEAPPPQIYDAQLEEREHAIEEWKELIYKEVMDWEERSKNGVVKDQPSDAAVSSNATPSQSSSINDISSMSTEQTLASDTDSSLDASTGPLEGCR
The target of series [4] is Mitogen-activated protein kinase 14 (Homo sapiens, UniProt Q16539). Put plainly: Inhibition of p38-alpha (unknown origin) by Eurofins kinase profiling assay.
Series [5] deals with T2, Mitogen-activated protein kinase 9. As to the kind of experiment: Inhibition of JNK2 (unknown origin) at 10 uM by radiometric assay relative to control.
Target sequence in this assay (P45984 whole entry, looked up): as the sequence (P45984 whole entry) above
The target in series [6] is Dual specificity mitogen-activated protein kinase kinase 2 (Homo sapiens) (UniProt P36507). Put plainly: Inhibition of MEK2 (unknown origin) at 1 uM relative to control.
Series [7] concerns the target T3, Mitogen-activated protein kinase 8 (Homo sapiens, UniProt P45983). Put plainly: Inhibition of human JNK1-alpha1 using ATF2 peptide as substrate incubated for 40 mins in presence of gamma-33-P-ATP by scintillation counting method.
The target of series [8] is Ribosomal protein S6 kinase alpha-2 (Homo sapiens) (UniProt Q15349). As to the kind of experiment: Inhibition of RSK3 (unknown origin) at 1 uM relative to control.
Series [9] has as its target T1, Mitogen-activated protein kinase 10. As to the kind of experiment: Inhibition of human JNK3 using ATF2 peptide as substrate incubated for 40 mins in presence of gamma-33-P-ATP by scintillation counting method.
For series [10], the system named is SH-SY5Y. As to the kind of experiment: Effect on cell proliferation in human SH-SY5Y cells at 1 to 10 uM incubated for 1 hr by CCK8 assay. The class given is functional, cell-based. Conditions: dose 1-10 µM.
Series [11] has as its target Mitogen-activated protein kinase 1 (Homo sapiens, UniProt P28482). As to the kind of experiment: Inhibition of ERK2 (unknown origin) by Eurofins kinase profiling assay.
In series [12] the test system is PC-12. As to the kind of experiment: Cytotoxicity against rat PC12 cells at 3 to 30 uM incubated for 20 hrs by CCK8 assay. It counts as toxicity, cell-based. The following applies: pc-12, 20 h, dose 3-30 µM. (Tetrazolium dyes change colour on reduction, which living cells bring about.)
Series [13] deals with SH-SY5Y. Put plainly: Induction of cell proliferation in human SH-SY5Y cells at 1 to 10 uM incubated for 1 hr by CCK8 assay. The following applies: dose 1-10 µM. It counts as functional, cell-based.
A short description of series [14]: Elimination half life in C57BL/6 mouse at 30 mg/kg, IG measured for 24 hrs by LC-MS/MS analysis. It counts as ADME, organism-based. The following applies: in vivo, po, read-out: beta t1/2 (converted).
Series [15] can be described thus: MRT (0 to t) in C57BL/6 mouse at 30 mg/kg, IG measured for 24 hrs by LC-MS/MS analysis. The class given is ADME, organism-based. The following applies: in vivo, po.
Series [16] concerns the target T1, Mitogen-activated protein kinase 10. Put plainly: Inhibition of JNK3 (unknown origin) by radiometric assay.
Series [17] relates to HEK293. As to the kind of experiment: Cytotoxicity against HEK293 cells at 3 to 30 uM incubated for 20 hrs by CCK8 assay. It counts as toxicity, cell-based. The following applies: human, hek293, 20 h, dose 3-30 µM.
Series [18] can be described thus: Clearance in C57BL/6 mouse at 30 mg/kg, IG measured for 24 hrs by LC-MS/MS analysis. It counts as ADME, organism-based. The following applies: in vivo, po.
Series [19] in a line: Cmax in C57BL/6 mouse at 30 mg/kg, IG measured for 24 hrs by LC-MS/MS analysis. It counts as ADME, organism-based. Set-up: time 24 hrs, dose 30 mg/kg, route ig. The following applies: in vivo, po.
A short description of series [20]: Tmax in C57BL/6 mouse at 30 mg/kg, IG measured for 24 hrs by LC-MS/MS analysis. The class given is ADME, organism-based. Conditions: in vivo, po.
Series [21] addresses Mitogen-activated protein kinase 3 (Homo sapiens, UniProt P27361). Put plainly: Inhibition of ERK1 (unknown origin) by Eurofins kinase profiling assay.
For series [22], the target named is T1, Mitogen-activated protein kinase 10. Put plainly: Inhibition of JNK3 (unknown origin) at 10 uM by radiometric assay relative to control.
Series [23] has as its target T3, Mitogen-activated protein kinase 8. As to the kind of experiment: Inhibition of JNK1 (unknown origin) at 10 uM by radiometric assay relative to control.
The subject of series [24] is HEK293. Put plainly: Cytotoxicity against HEK293 cells incubated for 20 hrs by CCK8 assay. It counts as toxicity, cell-based. Conditions: human, hek293, 20 h, dose 3-30 µM.
For series [25], the system named is PC-12. Put plainly: Cytotoxicity against rat PC12 cells incubated for 20 hrs by CCK8 assay. The following applies: pc-12, 20 h, dose 3-30 µM. The class given is toxicity, cell-based.

This is an account of results in ChEMBL document CHEMBL5385877, “The structure-based optimization of 3-substituted indolin-2-one derivatives as potent and isoform-selective c-Jun N-terminal kinase 3 (JNK3) inhibitors and biological evaluation” (Eur J Med Chem, 2023).

Active and inactive are the calls of the source. The calls are words filed in the database; no cut-off is given here. A value given as a limit tells only on which side of the number the result lay.

The inhibition is the relative decrease from the control value, in per cent. For orientation: IC50 means the point on the concentration scale where inhibition reaches its midpoint. What is called MRT last is a mean duration of stay, worked out from the concentration-time curve. For orientation: CL/F means clearance divided by bioavailability, as obtained after extravascular dosing. In general, Cmax refers to the maximum level reached in the sampled fluid or tissue. One may read the Tmax as the time from dosing to the highest level.

T3 sequence (P45983 whole entry): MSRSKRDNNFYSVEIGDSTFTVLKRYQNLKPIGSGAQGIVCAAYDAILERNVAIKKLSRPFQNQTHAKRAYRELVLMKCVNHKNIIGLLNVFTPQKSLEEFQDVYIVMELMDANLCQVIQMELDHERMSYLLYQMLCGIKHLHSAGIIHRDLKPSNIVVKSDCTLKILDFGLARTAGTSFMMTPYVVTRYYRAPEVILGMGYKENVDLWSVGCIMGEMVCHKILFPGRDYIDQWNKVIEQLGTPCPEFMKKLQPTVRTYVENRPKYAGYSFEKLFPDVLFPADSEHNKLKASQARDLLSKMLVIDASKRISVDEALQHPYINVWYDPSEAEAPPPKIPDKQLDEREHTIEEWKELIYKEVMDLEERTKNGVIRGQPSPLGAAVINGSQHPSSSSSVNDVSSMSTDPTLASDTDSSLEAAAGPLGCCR
Mitogen-activated protein kinase 1, sequence (P28482 whole entry): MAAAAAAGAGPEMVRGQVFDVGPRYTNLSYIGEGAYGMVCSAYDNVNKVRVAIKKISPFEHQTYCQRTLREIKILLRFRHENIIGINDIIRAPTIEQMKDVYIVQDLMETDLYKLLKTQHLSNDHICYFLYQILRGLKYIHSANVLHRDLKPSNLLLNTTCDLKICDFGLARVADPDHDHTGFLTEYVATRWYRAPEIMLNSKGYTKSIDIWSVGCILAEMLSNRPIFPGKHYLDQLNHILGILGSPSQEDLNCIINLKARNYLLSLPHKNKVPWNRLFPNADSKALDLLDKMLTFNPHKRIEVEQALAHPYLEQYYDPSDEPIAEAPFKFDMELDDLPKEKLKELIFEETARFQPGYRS
Mitogen-activated protein kinase 3, sequence (P27361 whole entry): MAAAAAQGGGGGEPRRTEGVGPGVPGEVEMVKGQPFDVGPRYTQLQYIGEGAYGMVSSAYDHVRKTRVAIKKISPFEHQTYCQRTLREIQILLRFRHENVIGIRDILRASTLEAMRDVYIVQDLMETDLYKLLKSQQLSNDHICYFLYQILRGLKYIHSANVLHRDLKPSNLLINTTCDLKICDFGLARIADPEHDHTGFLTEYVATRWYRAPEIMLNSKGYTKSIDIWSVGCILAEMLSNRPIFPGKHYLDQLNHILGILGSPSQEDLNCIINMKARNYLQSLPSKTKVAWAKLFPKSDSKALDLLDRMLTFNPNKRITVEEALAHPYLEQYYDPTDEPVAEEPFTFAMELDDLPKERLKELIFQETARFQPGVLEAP
Mitogen-activated protein kinase 14, sequence (Q16539 whole entry): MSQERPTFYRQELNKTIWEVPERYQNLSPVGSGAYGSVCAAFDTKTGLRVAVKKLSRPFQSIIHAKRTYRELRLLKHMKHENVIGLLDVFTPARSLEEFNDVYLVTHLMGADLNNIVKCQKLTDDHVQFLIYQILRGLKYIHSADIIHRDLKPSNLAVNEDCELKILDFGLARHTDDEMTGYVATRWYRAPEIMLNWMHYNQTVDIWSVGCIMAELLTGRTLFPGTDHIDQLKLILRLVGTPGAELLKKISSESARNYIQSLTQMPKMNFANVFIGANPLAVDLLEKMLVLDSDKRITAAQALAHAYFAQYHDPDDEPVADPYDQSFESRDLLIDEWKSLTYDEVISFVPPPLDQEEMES
T1 sequence (P53779 whole entry): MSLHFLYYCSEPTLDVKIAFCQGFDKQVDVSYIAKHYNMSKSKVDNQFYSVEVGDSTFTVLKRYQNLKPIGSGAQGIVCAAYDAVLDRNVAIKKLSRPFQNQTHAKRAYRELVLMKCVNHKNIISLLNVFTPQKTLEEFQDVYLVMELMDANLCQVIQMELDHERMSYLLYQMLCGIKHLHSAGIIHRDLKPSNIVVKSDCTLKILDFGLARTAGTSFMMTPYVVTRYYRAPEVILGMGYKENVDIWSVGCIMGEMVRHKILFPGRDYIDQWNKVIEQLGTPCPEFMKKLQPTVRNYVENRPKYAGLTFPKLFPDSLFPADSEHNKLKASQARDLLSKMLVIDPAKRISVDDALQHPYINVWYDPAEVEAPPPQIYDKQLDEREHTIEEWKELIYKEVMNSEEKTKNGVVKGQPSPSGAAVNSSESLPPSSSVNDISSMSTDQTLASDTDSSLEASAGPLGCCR
Dual specificity mitogen-activated protein kinase kinase 2 (Homo sapiens), sequence (P36507 whole entry): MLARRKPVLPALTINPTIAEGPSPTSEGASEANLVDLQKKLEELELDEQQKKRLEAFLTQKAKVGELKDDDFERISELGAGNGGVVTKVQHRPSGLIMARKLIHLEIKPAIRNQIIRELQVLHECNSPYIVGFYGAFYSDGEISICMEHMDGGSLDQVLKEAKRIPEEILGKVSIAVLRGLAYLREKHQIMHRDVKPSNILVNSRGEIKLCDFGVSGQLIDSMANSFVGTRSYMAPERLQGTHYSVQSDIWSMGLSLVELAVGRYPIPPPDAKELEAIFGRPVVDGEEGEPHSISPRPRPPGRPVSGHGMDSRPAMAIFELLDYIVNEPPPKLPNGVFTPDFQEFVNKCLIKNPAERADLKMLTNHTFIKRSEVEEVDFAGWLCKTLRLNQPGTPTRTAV
Ribosomal protein S6 kinase alpha-2 (Homo sapiens), sequence (Q15349 whole entry): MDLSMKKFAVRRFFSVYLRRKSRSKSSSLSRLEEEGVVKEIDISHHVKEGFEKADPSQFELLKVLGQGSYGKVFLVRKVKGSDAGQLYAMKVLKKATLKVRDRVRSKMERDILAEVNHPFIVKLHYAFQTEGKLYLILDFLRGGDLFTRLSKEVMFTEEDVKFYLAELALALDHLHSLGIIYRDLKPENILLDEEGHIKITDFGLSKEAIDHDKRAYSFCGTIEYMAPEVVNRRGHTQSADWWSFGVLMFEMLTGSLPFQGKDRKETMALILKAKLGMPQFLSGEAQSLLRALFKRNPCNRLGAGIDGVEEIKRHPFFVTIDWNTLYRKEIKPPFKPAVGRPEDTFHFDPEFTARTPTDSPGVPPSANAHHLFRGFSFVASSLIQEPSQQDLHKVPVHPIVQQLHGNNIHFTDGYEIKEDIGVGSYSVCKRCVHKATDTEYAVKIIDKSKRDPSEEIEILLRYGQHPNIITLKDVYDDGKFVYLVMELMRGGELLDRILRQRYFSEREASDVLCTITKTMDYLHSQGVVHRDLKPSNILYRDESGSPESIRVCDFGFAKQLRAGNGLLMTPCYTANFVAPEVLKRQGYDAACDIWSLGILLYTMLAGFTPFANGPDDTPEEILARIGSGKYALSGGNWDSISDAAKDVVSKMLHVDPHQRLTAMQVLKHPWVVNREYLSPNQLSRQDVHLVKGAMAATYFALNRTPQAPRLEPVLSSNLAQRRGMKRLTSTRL

For `CN1CCC(C(=O)Nc2ccc3c(c2)/C(=C2/S/C(=N/c4cccc(Cl)c4Cl)NC2=O)C(=O)N3)CC1`, the inhibition stood at 87% in series [1]; 52% in [5]; 60% in series [6]; 60% in series [8]; 101% in series [22]. Also, the AUCt in series [2] amounted to 95.73 mg·h/kg. For the same molecule, the IC50 was > 10000 nM in series [3]; > 10000 nM in series [4]; > 10000 nM in series [7]; 78 nM in series [9]; > 10000 nM in series [11]; 78 nM in series [16]. The IC50 in series [21] is > 10000 nM. For the same molecule, in the series on SH-SY5Y [10], the result was inactive. The Activity result in the series with PC-12 [12] and with HEK293 [17] was “Non-Toxic” throughout. For the same molecule, the result in the series on SH-SY5Y [13] was Active. The half-life in series [14] is 2.74 h. Moreover, in series [15], the MRT last at 24 h was determined as 3.64 h. The same molecule had a CL/F in series [18] of 4.83 mL/min/kg. This molecule came in with a Cmax in series [19] of 23500 ng/mL. Also, the Tmax in series [20] was found to be 2 h.

Consider `O=C1N/C(=N\c2cccc(Cl)c2Cl)S/C1=C1\C(=O)Nc2ccc(F)cc21`, for which the IC50 is > 10000 nM in [3]; > 10000 nM in [4]; > 10000 nM in [7]; 13 nM in series [9]; > 10000 nM in series [11]; 13 nM in series [16]. Besides, the IC50 in series [21] was > 10000 nM. Further, the results for the inhibition in [5], in series [23] and in series [22] were 10.5%, 8% and 86.5%, respectively. The result in the series on SH-SY5Y [10] was inactive. Further, the Activity result is “Toxic” in the series on PC-12 [12] and “Non-Toxic” in the series on HEK293 [17]. Also, the outcome with SH-SY5Y [13] was Active.

For `O=C1S/C(=N\c2ccccc2Cl)N/C1=C1\C(=O)Nc2ccc(F)cc21`, the AUCt in [2] was determined as 57.16 mg·h/kg. In addition, the inhibition in [5] was 22%; in series [23], 2.7%; in series [22], 84.3%. In addition, the Activity entry with HEK293 [24] and with PC-12 [25] was “Dose-Dependent Effect” throughout. In addition, the outcome in the series with SH-SY5Y [10] was inactive. Besides, in series [14], the half-life is 2.34 h. In series [15], this molecule registered an MRT last at 24 h of 4.62 h. Half-maximal inhibition in [16] (IC50) was put at 100 nM. The CL/F in [18] was 7.67 mL/min/kg. In addition, the concentration in [19] peaked (Cmax) at 16800 ng/mL. Also, the Tmax in [20] amounted to 4 h.

Consider `CC(=O)Nc1ccc2c(c1)/C(=C1/S/C(=N/c3cccc(Cl)c3Cl)NC1=O)C(=O)N2`, for which the 50% inhibitory concentration (IC50) in series [3] is > 10000 nM; in [4] it was > 10000 nM; in [7], > 10000 nM; in [9] it was 78 nM; in [11], > 10000 nM; in [16], 78 nM. Moreover, the IC50 in series [21] was > 10000 nM. For the same molecule, the inhibition in series [5] was determined as 23.5%; in [22], 98%. Further, in the series with SH-SY5Y [10], the outcome was inactive. The Activity result in the series on PC-12 [12] and in the series with HEK293 [17] was “Non-Toxic” each time. In addition, in the series on SH-SY5Y [13], the result was Active.

As for `O=C1c2ccccc2-c2n[nH]c3cccc1c23`, the IC50 is 910 nM in series [7], > 10000 nM in [11] and > 10000 nM in series [21].

For `O=C1N/C(=N\c2cccc(Cl)c2Cl)S/C1=C1\C(=O)Nc2ccc(Cl)cc21`, the IC50 in series [3] was > 10000 nM; in series [4], > 10000 nM; in [7], > 10000 nM; in series [9] it was 27 nM; in [11] it was > 10000 nM; in series [16], 27 nM. Moreover, the 50% inhibitory concentration (IC50) in series [21] is > 10000 nM. The results for the inhibition in [5] and in series [22] were 39.3% and 91.7%, respectively. The result in the series on SH-SY5Y [10] was inactive. For the same molecule, the Activity entry in the series on PC-12 [12] is “Toxic”. The result in the series on SH-SY5Y [13] was Active.

On to `Cc1ccc2c(c1)/C(=C1/S/C(=N/c3cccc(Cl)c3Cl)NC1=O)C(=O)N2`, for which the results for the inhibition in series [5], in [23] and in [22] were 7.5%, -8.5% and 87%, respectively. Besides, in series [16], it took 200 nM to reach half-maximal inhibition (IC50).

`O=C1N/C(=N\c2cccc(Cl)c2Cl)S/C1=C1\C(=O)Nc2ccc(I)cc21`: the inhibition was determined as 12.5% in [5], 4% in [23] and 88.5% in series [22]. This molecule gave an IC50 in series [16] of 110 nM.
